For the data set, the system named is Rattus norvegicus. The following applies: oral.
Where [1] appears, read: short-term, duration: 28 days, gavage, F, Sprague-Dawley, Clinical Observation: Salivation Soft feces Diarrhea Soiled perigenital fur + Body Weight Changes: decrease, Gain decrease + Urinalysis: pH ….
[2] abbreviates: short-term, duration: 28 days, gavage, M, Sprague-Dawley, Clinical Observation: Salivation Soft feces Diarrhea Soiled perigenital fur + Body Weight Changes: decrease, Gain decrease + Urinalysis: pH ….
Setting [3] is: short-term, duration: 28 days, gavage, M, Sprague-Dawley, Clinical Observation: Locomotor activity decrease, Staining around nose and mouth Salivation + Functional Observational Battery: Motor ….
Setting [4] is: chronic, duration: 92 days, gavage, M/F, Fischer 344, Histopathology: Liver-Proliferation of smooth endoplasmic reticulum, parenchymal cell (Electron-microscopic examination) Liver-Decrease in ….
The mark [5] stands for this setting: short-term, duration: 28 days, gavage, F, Sprague-Dawley, Clinical Observation: Soft stool + Body Weight Changes: decrease, Gain decrease + Urinalysis: Protein increasep H decrease + Blood Chemistry….
Where [6] appears, read: short-term, duration: 28 days, gavage, M, Sprague-Dawley, Clinical Observation: Soft stool + Body Weight Changes: decrease, Gain decrease + Urinalysis: Protein increasep H decrease + Blood Chemistry….

For 29 molecules, NOAEL, NOEL and LOEL results are on record in EPA's ToxValDB 9.5.

The term NOAEL denotes the highest dose or exposure tested at which no adverse effect was seen. On to `Cc1ccc(C)c(OCCCC(C)(C)C(=O)O)c1` [Gemfibrozil], for which the NOAEL was 30 mg/kg-day (chronic, duration: 91 days, diet, F, CD, Body Weight Changes: Body weight gain decrease + Hematology: RBC decrease, HCT decrease, HGB decrease, Plt increase, RET increase + Blood …) and under 30 mg/kg-day (chronic, duration: 91 days, diet, M, CD, Body Weight Changes: Body weight gain decrease + Hematology: RBC decrease, HCT decrease, HGB decrease, Plt increase, RET increase + Blood …).

With `[In]` [Indium], the NOEL (short-term, duration: 28 days, gavage, Crj:CD) was found to be 1000 mg/kg-day.

Take `CC(C)c1cccc2ccccc12` [Isopropylnaphthalene]: the LOEL under setting [1] is 250 mg/kg-day and the LOEL under setting [2] stood at 250 mg/kg-day. Besides, the NOEL came out at 50 mg/kg-day under setting [1] and 50 mg/kg-day under setting [2]. Consider `OC[C@@H](O)[C@@H](O[C@@H]1O[C@H](CO)[C@H](O)[C@H](O)[C@H]1O)[C@H](O)[C@@H](O)CO` [Lactitol], for which the NOEL (subchronic, gavage, M/F, SLC:SD, Clinical Observation: Loose stool, Diarrhea Soiled fur, Salivation Abdominal distention + Body Weight Changes: decrease + Food Consumption: …) was under 625 mg/kg-day. Consider `C=CC(C)(O)CCC=C(C)C` (stereo unspecified) [Linalool], for which, for the setting “short-term, duration: 28 days, gavage, M/F, CD/BR, Deaths + Blood Chemistry: TP increase, Alb increase, Ca increase, Glu decrease + Absolute Organ Weight: Liver increase, Kidney increase + …”, the NOAEL was 160 mg/kg-day. On to `O=C/C=C/[O-].[Na+]` [Malonaldehyde, sodium salt], for which, where the note is “subchronic, duration: 13 weeks, gavage, M/F, Fischer 344, Deaths + Clinical Observation: Rough hair coats Red exudate around the eyes Impairment of hindleg motor ability + Body Weight Changes: …”, the NOEL turned out to be 30 mg/kg-day. As to `COC(=O)CCS` [Methyl 3-mercaptopropionate], for the setting “subchronic, gavage, M, Wistar, Clinical Observation: Pushed their heads through the bedding + Relative Organ Weight: Liver increase + Histopathology: Stomach: Hyperplasia…”, the NOAEL stood at 100 mg/kg-day.

For the molecule `COC(N)=O` [Methyl carbamate], the NOEL (subchronic, duration: 13 weeks, gavage, M/F, Fischer 344, Deaths + Body Weight Changes: decrease + Absolute Organ Weight: Liver decrease + Relative Organ Weight: Liver decrease + Histopathology: …) was determined as 50 mg/kg-day.

In the case of `C[C@](N)(Cc1ccc(O)c(O)c1)C(=O)O.C[C@](N)(Cc1ccc(O)c(O)c1)C(=O)O.O.O.O` [Methyldopa sesquihydrate], the NOEL (subchronic, duration: 13 weeks, diet, M/F, Fischer 344, Deaths + Body Weight Changes: decrease + Food Consumption: decrease + Absolute Organ Weight: Liver decrease + Relative Organ Weight: Liver …) was under 298 mg/kg-day.

The molecule `CN(C)CCCCCCN(C)C` [N,N,N',N'-Tetramethyl-1,6-hexanediamine] registered an NOEL (subchronic, gavage, M, Sprague-Dawley, Histopathology: Lungs/ bronchus a"Vacuolation, bronchial epithelium Epididymis- Decrease, sperm) of 10 mg/kg-day.

`C=CC(=O)N(C)C` [N,N-Dimethylacrylamide]: the NOEL (short-term, duration: 28 days, gavage, M/F, Sprague-Dawley, Functional Observational Battery: Urination increase, Rearing decrease, Unkempt fur Motor activity decrease + Body Weight Changes: decrease…) is 20 mg/kg-day. With `O=NN1CN2CN(C1)CN(N=O)C2` [N,N-Dinitrosopentamethylenetetramine], under setting [3], the NOAEL is under 40 mg/kg-day and the NOEL is under 40 mg/kg-day. As to `CC(=O)Nc1ccccc1` [N-Acetylaminobenzene], where the note is “subchronic, duration: 30 days, gavage, M, Sprague-Dawley, Clinical Observation: Decreased locomotor activity Reddish Tear SalivationCyanosis + Hematology: HGB decrease, HCT decrease, MCHC decrease…”, the no observed adverse effect level (NOAEL) is under 22 mg/kg-day. Consider `CC1OC(C)OC(C)O1` (stereo unspecified) [Paraldehyde], for which, for the setting “short-term, duration: 28 days, gavage, M/F, Sprague-Dawley, Clinical Observation: Locomotor activity decrease + Functional Observational Battery: Width of straddle increase + Relative Organ Weight: …”, the NOEL came out at 100 mg/kg-day. With `CC1(C)S[C@@H]2[C@H](NC(=O)COc3ccccc3)C(=O)N2[C@H]1C(=O)[O-].[K+]` [Penicillin VK], the NOEL (subchronic, duration: 13 weeks, gavage, M/F, Fischer 344, Clinical Observation: Diarrhea + Body Weight Changes: decrease + Histopathology: Stomach/glandular-Mucous cell metaplasia) stood at 370 mg/kg-day. As for `Oc1cccc(Br)c1` [Phenol, 3-bromo-], the NOEL (short-term, duration: 28 days, gavage, M/F, Sprague-Dawley, Clinical Observation: Salivation + Body Weight Changes: Weight gain decrease + Water Consumption: increase + Urinalysis: Volume increase + …) was 300 mg/kg-day. In the case of `CCC1(c2ccccc2)C(=O)NCNC1=O` [Primidone], the NOEL (chronic, duration: 14 weeks, diet, M/F, Fischer 344, Body Weight Changes: decrease + Hematology: Plt increase, Hgb decrease, WBC increase, Lympho increase + Blood Chemistry: Blood cemistry', '…) was under 23.4 mg/kg-day.

As for `Oc1cccc(O)c1` [Resorcinol], under “subchronic, duration: 13 weeks, gavage, M/F, Fischer 344, Deaths + Clinical Observation: Tremor + Blood Chemistry: Ch E decrease + Absolute Organ Weight: Adrenal increase + Relative Organ Weight: …”, the NOEL was under 32 mg/kg-day. With `C=C1C/C(=C/C)C(=O)O[C@@H]2CCN3CC=C(COC(=O)[C@@]1(O)CO)[C@H]23` [Riddelliine], the NOEL (subchronic, gavage, M/F, Fischer 344, Deaths + Body Weight Changes: decrease + Hematology: Ret increase Hct increase Hgb increase RBC increase Plt decrease, WBC increase Lymph …) is under 0.1 mg/kg-day. Under setting [4], `CN(C)C(=O)c1nc(CNC(=O)CN)n(-c2ccc(Cl)cc2C(=O)c2ccccc2Cl)n1.Cl` [Rilmazafone hydrochloride] came in with an NOAEL of 25 mg/kg-day and an NOEL of 1 mg/kg-day. Take `C=Cc1ccc(S(=O)(=O)[O-])cc1.[Na+]` [Sodium 4-vinylbenzenesulfonate]: under setting [5], the LOEL was 1000 mg/kg-day and the NOEL is 300 mg/kg-day. Under setting [6], the LOEL was determined as 300 mg/kg-day and the NOEL came out at 100 mg/kg-day. For `O=C([O-])[C@H](O)[C@@H](O)[C@H](O)[C@H](O)CO.[Na+]` [Sodium D-gluconate], the NOAEL was 4100 mg/kg-day (short-term, duration: 28 days, diet, CD(SD)); 5% (short-term, duration: 28 days, diet, Sprague-Dawley); 1000 mg/kg-day (short-term, duration: 28 days, gavage, M, CD(SD), Histopathology: Stomach: Thickening of the limiting ridge); 1000 mg/kg-day (short-term, duration: 28 days, gavage, M, CD(SD), Histopathology: Stomach: Thickening, limiting ridge).

In the case of `CC(C)(C)C(O)(CCc1ccc(Cl)cc1)Cn1cncn1` (stereo unspecified) [Tebuconazole], the NOEL (short-term, duration: 28 days, gavage, M/F, Clinical Observation: Coma Polyuria + Body Weight Changes: Body weight gain decrease + Hematology: WBC increase, Seg% increase + Blood …) came to 30 mg/kg-day.

Turning to `CC(=O)CC/C=C(\C)CC/C=C(\C)CC/C=C(\C)CCC=C(C)C` [Teprenone], the NOEL (subchronic, gavage, M/F, Sprague-Dawley, Clinical Observation: Oily fur Unkempt fur Loss of fur Diarrhea + Body Weight Changes: decrease + Urinalysis: Cl increase, Ketone + …) amounted to 62.5 mg/kg-day. Regarding `CC(C)(c1cc(Br)c(OCC(Br)CBr)c(Br)c1)c1cc(Br)c(OCC(Br)CBr)c(Br)c1` (stereo unspecified) [Tetrabromobisphenol A-bis(2,3-dibromopropyl ether)], the NOEL (subchronic, gavage, Sprague-Dawley) worked out at 1000 mg/kg-day. Take `OCC1CCCO1` (stereo unspecified) [Tetrahydrofurfuryl alcohol]: for the setting “short-term, duration: 28 days, gavage, M/F, Sprague-Dawley, Clinical Observation: Locomotor activity increase, Locomotor activity decrease, Prone position + Functional Observational Battery: Grip …”, the NOEL was determined as 40 mg/kg-day. `Nc1nn[nH]n1` [Tetrazol-5-ylamine] yielded an NOEL (subchronic, gavage, M, Sprague-Dawley, Blood Chemistry: BUN increase) of 200 mg/kg-day.

Turning to `[Cl-].[Cl-].[Ti+4].c1cc[cH-]c1.c1cc[cH-]c1` [Titanocene dichloride], the NOEL (subchronic, duration: 13 weeks, gavage, M/F, Fischer 344, Deaths + Body Weight Changes: decrease + Absolute Organ Weight: Liver increase, Thymus decrease + Relative Organ Weight: kidney increase, …) is under 8 mg/kg-day. For `[CH3][Sn]([Cl])([Cl])[Cl]` [Trichloromethylstannane], where the note is “subchronic, duration: 90 days, diet, M/F, Wistar, Food Consumption: increase + Urinalysis: Volume increase, Specific gravity decrease, pH increase, Crystals increase + Hematology: RBC …”, the NOAEL was determined as 14.4 mg/kg-day.
